Data from ChEMBL document CHEMBL1156829 (Proc Natl Acad Sci U S A, 2008).

Key:
[1] = NOVARTIS: Cytotoxicity against human hepatocellular carcinoma cell line (Huh7); type: toxicity, cell-based, Huh-7; details: Huh7 cells (hepatocellular carcinoma cell line)
Plasmodium falciparum [2] = experiment: NOVARTIS: Inhibition of Plasmodium falciparum 3D7 (drug-susceptible) proliferation in erythrocyte-based infection assay; type: functional, organism-based; details: Plasmodium falciparum, 3D7
Plasmodium falciparum [3] = experiment: NOVARTIS: Inhibition of Plasmodium falciparum W2 (drug-resistant) proliferation in erythrocyte-based infection assay; type: functional, organism-based; details: Plasmodium falciparum, W2; read-out: EC50

Row | Compound | CC50 [1] [nM] | EC50 (Plasmodium falciparum [2]) [nM] | EC50 (Plasmodium falciparum [3]) [nM]
1 | CCCOC(=O)C1=C(C)NC2=C(C(=O)CC(c3ccc(OC)cc3)C2)C1c1cccc(F)c1 (configuration not stated) | > 100000 | 72.4 | 32.9
2 | C=CCNc1ncnc2c1c(-c1ccccc1)cn2-c1ccccc1 | > 100000 | 4520 | 5220
3 | CC1(c2ccccc2)CC(c2ccccc2)=Nc2nonc2N1 (configuration not stated) | > 10000 | 586 | 1170
4 | OC1(C(F)(F)F)CC(c2ccccc2)=NN1c1nncc(-c2ccccc2)n1 (configuration not stated) | > 10000 | 236 | 314
5 | CC(=NNC(=O)c1ccc([N+](=O)[O-])cc1)c1cccc([N+](=O)[O-])c1 | > 10000 | > 1410 | > 406
6 | CN(CCCNc1ccnc2cc(Cl)ccc12)C(=O)c1ccc(Cl)c(Cl)c1 | > 8360 | 36.6 | 122
7 | Cc1cccc(NC(=O)c2cc(Cl)nc3ccccc23)c1 | > 100000 | 3670 | 1940
8 | CC(C)C(=O)N(C)CCCNc1ccnc2cc(Cl)ccc12 | > 10000 | 131 | 118
9 | CCOC(=O)c1c(Cl)nnc(-c2ccccc2)c1-c1ccccc1 | > 10000 | 797 | > 1440
10 | COc1cc(C=NNC(=O)Cc2nnc(N)s2)ccc1O | > 12700 | > 1250 | > 1120
11 | CCCOC(=O)C1=C(C)NC2=C(C(=O)CC(c3ccc(OC)c(OC)c3)C2)C1c1cccc([N+](=O)[O-])c1 (configuration not stated) | > 62400 | 145 | 36.4
12 | Cc1cc(C)nc(SCc2cc(=O)c(OC(=O)c3ccccc3Br)co2)n1 | > 100000 | > 11200 | > 11200
13 | CCC1CCCCN1CCCNC(=O)c1cn(CC)c(=O)c2cc(OC)c(OC)cc12 (configuration not stated) | > 100000 | 449 | 505
14 | CC(NC(=O)Cc1ccc(F)cc1)C(c1cccs1)N1CCOCC1 (configuration not stated) | > 10000 | 2010 | > 1250
15 | COc1ccc(NC(C)=C2C(=O)c3ccccc3C2=O)c(OC)c1 | > 100000 | 1270 | 426
16 | CN(C)c1ccc(N2C(N)=NC(N)=NC2(C)C)cc1 | > 10000 | 18.8 | > 1250
17 | Cc1ccc(-c2c3c(nc4sc(C(=O)Nc5ccc(F)cc5)c(N)c24)CCC3)cc1 | > 100000 | 68.8 | 27.2
18 | O=C(NNc1ccccc1F)c1c(F)cccc1Cl | > 10000 | > 1250 | < 31.6
19 | CCOC(=O)C1=C(C)NC2=C(C(=O)C(C(=O)OCC)C(c3ccc(OC)cc3)C2)C1c1ccc(OC)c(OC)c1 (configuration not stated) | > 76600 | 275 | 178
20 | Cc1cccc(-c2nc3cc(NC(=O)c4ccc([N+](=O)[O-])o4)ccc3o2)c1 | > 100000 | 1720 | > 12500
21 | Cc1cc(N2CCN(CC=Cc3ccccc3)CC2)n2c(nc3ccccc32)c1C#N | > 100000 | 657 | 942
22 | NC(=O)C(Cc1ccccc1)Nc1ccc([N+](=O)[O-])cc1[N+](=O)[O-] (configuration not stated) | > 10000 | 883 | 680
23 | O=C1CCC(CCNCc2ccc(Cl)cc2)N1CC1(N2CCCCC2)CCCC1 (configuration not stated) | > 10000 | > 1250 | 632

Row | Compound | CC50 [1] [nM] | EC50 (Plasmodium falciparum [2]) [nM] | EC50 (Plasmodium falciparum [3]) [nM]
24 | COc1cccc(Cn2c(C)nc3cc(NC(=O)Nc4ccccc4)c(C)nc32)c1 | > 13100 | > 443 | 163
25 | NC(=S)NN=Cc1cc([N+](=O)[O-])ccc1O | > 100000 | 68.6 | 52
26 | N#Cc1c(N)nc(C(Cl)(Cl)Cl)nc1-c1ccccc1 | > 100000 | 498 | 184
27 | O=C(N1CCN(c2ccc(C(F)(F)F)cc2[N+](=O)[O-])CC1)C(Cl)(Cl)Cl | > 95000 | 263 | 86.6
28 | Clc1ccccc1C[n+]1cc(-c2ccccc2)n2c1CCC2 | > 100000 | 2330 | 3470
29 | COc1ccc(C2CC(=O)C3=C(C2)NC(C)=C(C(=O)OC2CCCC2)C3c2ccc(F)cc2)cc1OC (configuration not stated) | 11600 | 12.6 | 19.3
30 | Clc1ccc(CNCCCn2ccnc2)cc1Cl | > 10000 | > 1250 | > 269
31 | Fc1ccc(-c2cn3c([n+]2-c2ccccc2)SCC3)cc1 | > 100000 | 1090 | 713
32 | O=C(NCCCN1CCCC1=O)C(=O)NCC(c1ccco1)N1CCOCC1 (configuration not stated) | > 10000 | > 1250 | 1350
33 | O=[N+]([O-])c1ccc(-n2cccc2C=NNc2ncnc3sc4c(c23)CCCC4)cc1 | 7450 | 2780 | 1410
34 | CCOC(=O)c1c[nH]c2c(CC)cccc2c1=O | > 100000 | 1660 | 2650
35 | O=C(O)c1ccc(C=NNc2ccc([N+](=O)[O-])cc2)cc1 | > 10000 | > 1160 | > 1250
36 | COc1cc(C2Nc3ccc4ccccc4c3C3=C2C(=O)CC(C)(C)C3)ccc1Oc1ccc([N+](=O)[O-])cc1C(F)(F)F (configuration not stated) | > 100000 | 285 | 95.8
37 | Cc1ccccc1Cn1c(C)c[n+]2ccsc12 | > 10000 | 1280 | 113
38 | Cc1cccc(NC(=O)c2ccc(N3CC4CC(C3)c3cccc(=O)n3C4)c(NC(=O)Cc3c(F)cccc3Cl)c2)n1 (configuration not stated) | > 10000 | > 1450 | 197
39 | Cc1oc2c(c1C(=O)NCc1cccnc1)C(=O)c1ccccc1C2=O | 1910 | 1500 | 1750
40 | O=C(Nc1cc(Cl)ccc1O)c1cnn2c(C(F)(F)F)cc(-c3ccc(F)cc3)nc12 | > 100000 | > 8740 | 2910
41 | Cc1cc(NC(=O)c2ccc(S(=O)(=O)N(Cc3ccccc3)C(C)C)cc2)no1 | > 100000 | 2690 | 538
42 | CC1CCN(c2ncnc3sc4c(c23)CCC(C)C4)CC1 (configuration not stated) | > 100000 | 1050 | 2300
43 | CCC(C)(C)c1ccc(OCCOCC[n+]2ccccc2)c(C(C)(C)CC)c1 | 12200 | 960 | 844
44 | CC(C)CCn1c(NCc2ccccc2)nc2c1c(=O)n(CC(N)=O)c(=O)n2C | > 10000 | > 1250 | 1710
45 | COC(=O)c1ccc(Nc2nc(NCc3ccco3)c3ccccc3n2)cc1 | 18800 | 279 | 433
46 | O=C(O)c1ccc([C@@H]2Nc3c(ccc4ccccc34)[C@@H]3C=CC[C@@H]32)cc1 | > 10000 | > 1250 | 1340

Row | Compound | CC50 [1] [nM] | EC50 (Plasmodium falciparum [2]) [nM] | EC50 (Plasmodium falciparum [3]) [nM]
47 | Cc1c(Cl)cccc1N1C(=O)C2C3c4ccccc4C(c4ccccc43)C2C1=O (configuration not stated) | > 10000 | > 1610 | 686
48 | CSc1ccc(/C=C/C(=O)NC(=O)c2ccccc2O)cc1 | > 10000 | 127 | 131
49 | CCOC(=O)NN=C(C)c1ccc(C(C)=NNC(=O)OCC)cc1 | > 100000 | > 5590 | 747
50 | COc1ccc(CN2CCOc3ccc(C(C)(O)CN(C)C)cc3C2)cc1C (configuration not stated) | > 100000 | 823 | 193
51 | CCOC(=O)CCC(=O)Oc1ccccc1-c1nc2ccccn2c1NC(C)(C)CC(C)(C)C | > 10000 | 1060 | 178
52 | COc1ccc(C2CC(c3cccs3)=NN2C(=O)CSc2nnc(CNC(=O)c3cccs3)n2-c2cc(C)ccc2C)cc1 (configuration not stated) | > 100000 | > 8550 | 1140
53 | C[n+]1cccc2ccc3cccnc3c21 | > 8030 | 66.4 | 140
54 | O=C1C2C(C(=O)N1c1ccc(F)cc1)C1(c3ccccc3)C(=O)C2(c2ccccc2)C(c2ccccc2)=C1c1ccccc1 (configuration not stated) | > 100000 | 563 | 474
55 | CCC(c1nc2ccccc2c(=O)n1-c1ccccc1OC)N(CCc1ccccc1)C(=O)c1cccc(OC)c1 (configuration not stated) | > 10000 | 1080 | 31.1
56 | COc1ccc2nc(C)cc(Nc3ccc(Oc4ccc5ccccc5c4)c(Cl)c3)c2c1 | 7070 | 166 | 206
57 | COc1ccc(C=CC(=O)Nc2ccc3nc(N4CCN(C)CC4)cc(C)c3c2)cc1OC | 55200 | 708 | 946
58 | Cc1ccc2[nH]c3c(NCCN(C)C)ncnc3c2c1 | 29600 | 168 | 254
59 | CC[C@H]1CN2CCc3cc(OC)c(OC)cc3[C@@H]2C[C@@H]1C[C@H]1NCCc2cc(OC)c(OC)cc21 [EMETINE] | 116 | 10.1 | 22.9
60 | Cc1nc([P+](c2ccccc2)(c2ccccc2)c2ccccc2)c(N2CCCCC2)o1 | 7120 | 761 | 967
61 | CCOC(=O)c1c(C)[nH]c2c1cc(O)c1ccccc12 | > 10000 | 98.6 | 126
62 | COc1ccc(C2CC(=O)C3=C(C2)NC(C)=C(C(=O)OC(C)C)C3c2ccc(F)cc2)cc1OC (configuration not stated) | 22800 | 9.45 | 13.1
63 | C(#Cc1ccccc1)C[N+]1(CC#Cc2ccc(C#CC[N+]3(CC#Cc4ccccc4)CCCCC3)cc2)CCCCC1 | > 100000 | 493 | 252
64 | CCOc1cc(Br)cc(C=NNC(=O)COc2cccc(C)c2)c1O | > 46200 | 7520 | > 12500
65 | OC(CN1CCN(c2ccnc3cc(Cl)ccc23)CC1)CN1CCN(c2ccnc3cc(Cl)ccc23)CC1 | > 10000 | 85.6 | 29.6
66 | c1ccc2[nH]c(Sc3ncnc4sc5c(c34)CCC5)nc2c1 | > 100000 | 6840 | 909
67 | C=CCSc1nc(N)c2c3c(sc2n1)CN(CCC)CC3 | > 100000 | 623 | 168
68 | CCCc1c(C)nc2ccc(Br)cc2c1O | > 100000 | 1510 | 1340
69 | Cc1ccc(OCC(=O)Nc2cccc(C(=O)O)c2)c(Br)c1 | > 10000 | > 1250 | > 34.9
